Patent US12492188B2, “1H-benzo[D]imidazole derivatives as TLR9 inhibitors for the treatment of fibrosis” (BRISTOL-MYERS SQUIBB COMPANY, priority 2020, dated 2025)
pIC50: −log10 of the molar value. Read-outs that look alike come from different tables or passages of the source.

Target: T1, human TLR9 (Homo sapiens, UniProt Q9NR96)
T1 construct: host or cells: HEK-Blue cells (HEK293-derived reporter line)
T1 sequence (Q9NR96 26-1032): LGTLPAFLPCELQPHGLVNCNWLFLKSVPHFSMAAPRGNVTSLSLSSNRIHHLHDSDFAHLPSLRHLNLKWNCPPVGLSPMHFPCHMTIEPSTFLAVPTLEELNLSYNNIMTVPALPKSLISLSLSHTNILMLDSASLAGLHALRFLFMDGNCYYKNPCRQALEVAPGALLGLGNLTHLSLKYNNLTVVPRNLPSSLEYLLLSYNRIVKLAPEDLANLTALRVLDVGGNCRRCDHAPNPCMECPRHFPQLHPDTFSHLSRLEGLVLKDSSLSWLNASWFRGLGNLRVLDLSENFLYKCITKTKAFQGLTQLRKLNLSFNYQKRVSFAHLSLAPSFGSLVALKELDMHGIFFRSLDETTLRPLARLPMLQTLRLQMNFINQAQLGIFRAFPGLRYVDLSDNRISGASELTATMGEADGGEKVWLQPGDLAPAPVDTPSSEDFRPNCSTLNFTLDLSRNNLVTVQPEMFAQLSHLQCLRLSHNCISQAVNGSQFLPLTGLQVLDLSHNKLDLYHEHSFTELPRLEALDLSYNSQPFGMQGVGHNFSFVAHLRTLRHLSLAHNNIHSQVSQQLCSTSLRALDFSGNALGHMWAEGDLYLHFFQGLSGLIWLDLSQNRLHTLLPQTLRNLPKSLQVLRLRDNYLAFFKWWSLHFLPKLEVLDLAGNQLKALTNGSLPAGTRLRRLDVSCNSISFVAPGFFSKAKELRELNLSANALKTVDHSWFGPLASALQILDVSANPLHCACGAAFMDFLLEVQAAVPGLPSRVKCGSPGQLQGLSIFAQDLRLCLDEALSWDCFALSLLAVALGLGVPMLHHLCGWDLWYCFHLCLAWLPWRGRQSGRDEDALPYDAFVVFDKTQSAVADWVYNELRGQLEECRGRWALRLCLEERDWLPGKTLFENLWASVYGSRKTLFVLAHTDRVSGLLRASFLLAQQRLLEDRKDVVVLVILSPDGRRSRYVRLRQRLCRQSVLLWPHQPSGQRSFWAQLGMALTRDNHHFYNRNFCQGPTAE
Test: TLR9 inhibition reporter assay (HEK-Blue cells, secreted embryonic alkaline phosphatase reporter)
Type: cell-based
Experimental: TLR7/8/9 Inhibition Reporter Assays
HEK-Blue™-cells (Invivogen) overexpressing human TLR7, TLR8 or TLR9 receptors were used for screening inhibitors of these receptors using an inducible SLAP (secreted embryonic alkaline phosphatase) reporter gene under the control of the […] minimal promoter fused to five NF-κB and AP-1-binding sites. Briefly, cells are seeded into Greiner 384 well plates (15000 cells per well for TLR7, 20,000 for TLR8 and 25,000 for TLR9) and then treated with test compounds in DMSO to yield a final dose response concentration range of 0.05 nM-50 μM. After a 30 minute compound pre-treatment at room temperature, the cells are then stimulated with a TLR7 ligand (gardiquimod at a final concentration of 7.5 μM), TLR8 ligand (R848 at a final concentration of 15.9 μM) or TLR9 ligand (ODN2006 at a final concentration of 5 nM) to activate NF-κB and AP-1 which induce the production of SLAP. After a 22 hour incubation at 37° C., […], SLAP levels are determined with the addition of HEK-Blue™ Detection reagent (Invivogen), a cell culture medium that allows for detection of SLAP, according to manufacturer's specifications. The percent inhibition is determined as the […] in the HEK-Blue signal present in wells treated with agonist plus DMSO alone compared to wells treated with a known inhibitor.

[1] = HEK-Blue cells overexpressing human TLR9, stimulated with ODN2006 5 nM, read-out: TLR 9 IC50
[2] = HEK-Blue human TLR9 reporter cells
[3] = HEK-Blue cells overexpressing human TLR9, stimulated with ODN2006 5 nM, 22 hour incubation, reporter readout

Structure (SMILES)	pIC50	pIC50 [1]	pIC50 [2]	pIC50 [3]
Cc1cc(C2CCN(C3CC4CCC(C3)N4CC3CC3)CC2)cc2c1nc(-c1ccc(S(C)(=O)=O)cc1)n2C (single isomer, unassigned) [Example 155, 6-(1-(8-(cyclopropylmethyl)-8-azabicyclo[3.2.1]octan-3-yl)piperidin-4-yl)-1,4-dimethyl-2-(4-(methylsulfonyl)phenyl)-1H-benzo[d]imidazole]	6.80	6.79		
Cc1cc(-c2ccc(N3CCN(C4CCOCC4)CC3)cc2)cc2c1nc(-c1ccc(S(C)(=O)=O)cc1)n2C [Example 176, 1,4-dimethyl-2-(4-(methylsulfonyl)phenyl)-6-(4-(4-(tetrahydro-2H-pyran-4-yl)piperazin-1-yl)phenyl)-1H-benzo[d]imidazole]	6.17	6.17		
Cc1cc(C2CCN(C3CC4CCC(C3)N4C3CCC3)CC2)cc2[nH]c(-c3ccc(S(C)(=O)=O)c(F)c3)nc12 (stereo not drawn) [Example 349, 6-(1-(8-cyclobutyl-8-azabicyclo[3.2.1]octan-3-yl)piperidin-4-yl)-2-(3-fluoro-4-(methylsulfonyl)phenyl)-4-methyl-1H-benzo[d]imidazole]		7.62	7.62	
Cc1cc(C2CCN(C3CCN(CC(C)C)CC3)CC2)cc2[nH]c(-c3ccc(S(=O)(=O)c4ccccc4)cc3)nc12 [Example 75, 6-(1′-isobutyl-[1,4′-bipiperidin]-4-yl)-4-methyl-2-(4-(phenylsulfonyl)phenyl)-1H-benzo[d]imidazole tris(2,2,2-trifluoroacetate)]		7.20		7.20
COc1ccc(-c2nc3c(C)cc(C4CCN(C5CC6CCC(C5)N6C(C)C)CC4)cc3n2C)cc1OC (stereo not drawn) [Example 145, 2-(3,4-dimethoxyphenyl)-6-(1-(8-isopropyl-8-azabicyclo[3.2.1]octan-3-yl)piperidin-4-yl)-1,4-dimethyl-1H-benzo[d]imidazole]	7.62	7.62		
Cc1cc(-c2ccc(CN3CCN(CC(C)C)CC3)cc2)cc2c1nc(-c1ccc(S(C)(=O)=O)cc1)n2C [Example 414, 6-(4-((4-isobutylpiperazin-1-yl)methyl)phenyl)-1,4-dimethyl-2-(4-(methylsulfonyl)phenyl)-1H-benzo[d]imidazole]				5.74
Cc1c(C2CCN(C3CCN(C(C)C)CC3)CC2)ccc2nc(-c3ccc(S(C)(=O)=O)cc3)n(C)c12 [Example 119, 6-(1′-isopropyl-[1,4′-bipiperidin]-4-yl)-1,7-dimethyl-2-(4-(methylsulfonyl)phenyl)-1H-benzo[d]imidazole]		5.96		5.96
CN(C)c1ccc(-c2nc3ccc(-c4ccc(CN5CCC(N(C)C)CC5)cc4)cc3n2C)cc1 [Example 425, 1-(4-(2-(4-(dimethylamino)phenyl)-1-methyl-1H-benzo[d]imidazol-6-yl)benzyl)-N,N-dimethylpiperidin-4-amine]				7.21
CN(C)C1CCN(Cc2ccc(-c3ccc4nc(-c5cc(F)cc(F)c5)n(C)c4c3)cc2)CC1 [Example 381, 1-(4-(2-(3,5-difluorophenyl)-1-methyl-1H-benzo[d]imidazol-6-yl)benzyl)-N,N-dimethylpiperidin-4-amine]		6.85		6.85
Cc1cc(C2CCN(C3CC4CCC(C3)N4C3CC3)CC2)cc2[nH]c(-c3ccc(S(C)(=O)=O)c(F)c3)nc12 (stereo not drawn) [Example 347, 6-(1-(8-cyclopropyl-8-azabicyclo[3.2.1]octan-3-yl)piperidin-4-yl)-2-(3-fluoro-4-(methylsulfonyl)phenyl)-4-methyl-1H-benzo[d]imidazole]		7.36	7.36	
Cc1cc(C2CCN(C3CCN(CC(C)C)CC3)CC2)cc2[nH]c(-c3ccc(S(C)(=O)=O)c(F)c3)nc12 [Example 66, 2-(3-fluoro-4-(methylsulfonyl)phenyl)-6-(1′-isobutyl-[1,4′-bipiperidin]-4-yl)-4-methyl-1H-benzo[d]imidazole]		7.16		7.16
COc1ccc(-c2nc3c(C)cc(C4CCN(C5CC6CCC(C5)N6CC5CCC5)CC4)cc3n2C)cc1OC (single isomer, unassigned) [Example 150, 6-(1-(8-(cyclobutylmethyl)-8-azabicyclo[3.2.1]octan-3-yl)piperidin-4-yl)-2-(3,4-dimethoxyphenyl)-1,4-dimethyl-1H-benzo[d]imidazole]	7.49	7.49		
Cc1cc(C2CCN(C3CCN(CC(C)C)CC3)CC2)cc2[nH]c(-c3nc4ccccc4s3)nc12 [Example 70, 2-(6-(1′-isobutyl-[1,4′-bipiperidin]-4-yl)-4-methyl-1H-benzo[d]imidazol-2-yl)benzo[d]thiazole tris(2,2,2-trifluoroacetate)]		6.68		6.68
COc1ccc(-c2nc3c(C)cc(C4CCN(C5CC6CCC(C5)N6C5CCC5)CC4)cc3n2C)cc1OC (stereo not drawn) [Example 147, 6-(1-(8-cyclobutyl-8-azabicyclo[3.2.1]octan-3-yl)piperidin-4-yl)-2-(3,4-dimethoxyphenyl)-1,4-dimethyl-1H-benzo[d]imidazole]	6.70	6.70		
Cc1cc(-c2ccc(CCN3CCC(C)(O)CC3)cc2)cc2c1nc(-c1ccc(S(C)(=O)=O)cc1)n2C [Example 366, 1-(4-(1,4-dimethyl-2-(4-(methylsulfonyl)phenyl)-1H-benzo[d]imidazol-6-yl)phenethyl)-4-methylpiperidin-4-ol]		6.35		6.35
Cc1c(C2CCN(C3CCN(CC(C)C)CC3)CC2)ccc2nc(-c3ccc(S(C)(=O)=O)cc3)n(C)c12 [Example 330, 6-(1′-isobutyl-[1,4′-bipiperidin]-4-yl)-1,7-dimethyl-2-(4-(methylsulfonyl)phenyl)-1H-benzo[d]imidazole]		5.86	5.85	
Cc1cc(C2CCN(C3CCCN(CC(C)C)CC3)CC2)cc2c1nc(-c1ccc(S(C)(=O)=O)cc1)n2C (stereo not drawn) [Example 136, 6-(1-(1-isobutylazepan-4-yl)piperidin-4-yl)-1,4-dimethyl-2-(4-(methylsulfonyl)phenyl)-1H-benzo[d]imidazole]	6.85	6.87		
COc1ccc(-c2nc3cc(F)c(C4CCN(C5CCN(C6CC6)CC5)CC4)cc3[nH]2)cc1OC [Example 131, 6-(1′-cyclopropyl-[1,4′-bipiperidin]-4-yl)-2-(3,4-dimethoxyphenyl)-5-fluoro-1H-benzo[d]imidazole]	7.23	7.23		
Cc1cc(C2CCN(C3CC4(C3)CN(C3CCC3)C4)CC2)cc2c1nc(-c1ccc(S(C)(=O)=O)cc1)n2C [Example 140, 6-(1-(2-cyclobutyl-2-azaspiro[3.3]heptan-6-yl)piperidin-4-yl)-1,4-dimethyl-2-(4-(methylsulfonyl)phenyl)-1H-benzo[d]imidazole]	6.54	6.54		
CN(C)C1CCN(Cc2ccc(-c3ccc4nc(-c5cccc(S(C)(=O)=O)c5)n(C)c4c3)cc2)CC1 [Example 384, N,N-dimethyl-1-(4-(1-methyl-2-(3-(methylsulfonyl)phenyl)-1H-benzo[d]imidazol-6-yl)benzyl)piperidin-4-amine]		4.39		7.39
COc1ccc(-c2nc3c(C)cc(C4CCN(C5CCN(CC(C)C)CC5)CC4)cc3[nH]2)cc1Cl [Example 64, 2-(3-chloro-4-methoxyphenyl)-6-(1′-isobutyl-[1,4′-bipiperidin]-4-yl)-4-methyl-1H-benzo[d]imidazole]		7.04		7.04
COCCN1CCN(c2ccc(-c3cc(C)c4nc(-c5ccc(S(C)(=O)=O)cc5)n(C)c4c3)cc2)CC1 [Example 173, 6-(4-(4-(2-methoxyethyl)piperazin-1-yl)phenyl)-1,4-dimethyl-2-(4-(methylsulfonyl)phenyl)-1H-benzo[d]imidazole]	5.96	5.95		
